Measurements published in ChEMBL document CHEMBL3414511, “Synthesis of a novel class of substituted benzothiophene or benzofuran derivatives as BMP-2 up-regulators and evaluation of the BMP-2-up-regulating effects in vitro and the effects on glucocorticoid-induced osteoporosis in rats” (Eur J Med Chem, 2015).
Active and inactive are the calls of the source. The rule behind the calls is not given here.

Tests used:
[1] = Upregulation of BMP-2 expression in mouse MC3T3-E1 cells at 4 uM after 24 hrs by luciferase reporter gene assay relative to control; assay type: functional, cell-based
Rattus norvegicus [2] = experiment: Toxicity in glucocorticoid-induced Wistar rat osteoporosis model assessed as effect on creatinine level at 30 mg/kg/day, po administered six times a week for 3 months; assay type: organism-based; set-up: route oral; conditions: in vivo
Rattus norvegicus [3] = experiment: Toxicity in glucocorticoid-induced Wistar rat osteoporosis model assessed as effect on red blood cell distribution width at 30 mg/kg/day, po administered six times a week for 3 months; assay type: organism-based; set-up: route oral; conditions: in vivo
Rattus norvegicus [4] = experiment: Toxicity in glucocorticoid-induced Wistar rat osteoporosis model assessed as lymph level at 30 mg/kg/day, po administered six times a week for 3 months (reference value: 50.35 +/- 12.96%); assay type: organism-based; set-up: route oral; conditions: in vivo
Rattus norvegicus [5] = experiment: Toxicity in glucocorticoid-induced Wistar rat osteoporosis model assessed as aspartate transaminase level at 30 mg/kg/day, po administered six times a week for 3 months (reference value: 177.55 +/- 116.98 U/L); assay type: organism-based; set-up: route oral; conditions: in vivo
Rattus norvegicus [6] = experiment: Toxicity in glucocorticoid-induced Wistar rat osteoporosis model assessed as effect on red blood cells at 30 mg/kg/day, po administered six times a week for 3 months; assay type: organism-based; set-up: route oral; conditions: in vivo
Rattus norvegicus [7] = experiment: Toxicity in glucocorticoid-induced Wistar rat osteoporosis model assessed as effect on glucose level at 30 mg/kg/day, po administered six times a week for 3 months; assay type: organism-based; set-up: route oral; conditions: in vivo
Rattus norvegicus [8] = experiment: Toxicity in glucocorticoid-induced Wistar rat osteoporosis model assessed as effect on mean corpuscular hemoglobin concentration at 30 mg/kg/day, po administered six times a week for 3 months; assay type: organism-based; set-up: route oral; conditions: in vivo
Rattus norvegicus [9] = experiment: Antiosteoporotic activity in glucocorticoid-induced Wistar rat osteoporosis model assessed as increase in trabecula connectivity at 30 mg/kg/day, po administered six times a week for 3 months by toluidine blue staining-based light microscopic analysis relative to dexamethasone; assay type: functional, organism-based
Rattus norvegicus [10] = experiment: Toxicity in glucocorticoid-induced Wistar rat osteoporosis model assessed as effect on albumin level at 30 mg/kg/day, po administered six times a week for 3 months; assay type: organism-based; set-up: route oral; conditions: in vivo
Rattus norvegicus [11] = experiment: Antiosteoporotic activity in glucocorticoid-induced Wistar rat osteoporosis model assessed as trabecula resorption surface at 30 mg/kg/day, po administered six times a week for 3 months by fluorescence assay (reference value: 7.22 +/- 2.04%); assay type: functional
Mus musculus [12] = experiment: Acute toxicity in Kunming mouse assessed as behavioral changes at 500 mg/kg, po administered for 3 days measured during compound dosing and following 14 days; assay type: organism-based; set-up: dose 500 mg/kg, route oral; conditions: in vivo, 336 h
Rattus norvegicus [13] = experiment: Antiosteoporotic activity in glucocorticoid-induced Wistar rat osteoporosis model assessed as trabecular bone volume at 30 mg/kg/day, po administered six times a week for 3 months by fluorescence assay (reference value: 33.09 +/- 5.15%); assay type: functional, Trabecula
Rattus norvegicus [14] = experiment: Toxicity in glucocorticoid-induced Wistar rat osteoporosis model assessed as effect on mean corpuscular volume at 30 mg/kg/day, po administered six times a week for 3 months; assay type: organism-based; set-up: route oral; conditions: in vivo
Rattus norvegicus [15] = experiment: Antiosteoporotic activity in glucocorticoid-induced Wistar rat osteoporosis model assessed as increase in trabecula number at 30 mg/kg/day, po administered six times a week for 3 months by toluidine blue staining-based light microscopic analysis relative to dexamethasone; assay type: functional, organism-based
Mus musculus [16] = experiment: Acute toxicity in Kunming mouse assessed as shiny fur at 500 mg/kg, po administered for 3 days measured during compound dosing and following 14 days; assay type: organism-based; set-up: dose 500 mg/kg, route oral; conditions: in vivo, 336 h
Rattus norvegicus [17] = experiment: Antiosteoporotic activity in glucocorticoid-induced Wistar rat osteoporosis model assessed as trabecula formation surface at 30 mg/kg/day, po administered six times a week for 3 months by fluorescence assay (reference value: 7.82 +/- 2.46%); assay type: functional
Rattus norvegicus [18] = experiment: Toxicity in glucocorticoid-induced Wistar rat osteoporosis model assessed as effect on hemoglobin at 30 mg/kg/day, po administered six times a week for 3 months; assay type: organism-based; set-up: route oral; conditions: in vivo
[19] = Acute toxicity in po dosed Kunming mouse administered for 3 days measured during compound dosing and following 14 days; assay type: organism-based; conditions: in vivo
Rattus norvegicus [20] = experiment: Toxicity in glucocorticoid-induced Wistar rat osteoporosis model assessed as alanine transaminase level at 30 mg/kg/day, po administered six times a week for 3 months (reference value: 43.73 +/- 36.21 U/L); assay type: organism-based; set-up: route oral; conditions: in vivo
Rattus norvegicus [21] = experiment: Toxicity in glucocorticoid-induced Wistar rat osteoporosis model assessed as effect on red blood cell specific volume at 30 mg/kg/day, po administered six times a week for 3 months; assay type: organism-based; set-up: route oral; conditions: in vivo
Rattus norvegicus [22] = experiment: Toxicity in glucocorticoid-induced Wistar rat osteoporosis model assessed as effect on total protein level at 30 mg/kg/day, po administered six times a week for 3 months; assay type: organism-based; set-up: route oral; conditions: in vivo
Rattus norvegicus [23] = experiment: Toxicity in glucocorticoid-induced Wistar rat osteoporosis model assessed as effect on total bilirubin level at 30 mg/kg/day, po administered six times a week for 3 months; assay type: organism-based; set-up: route oral; conditions: in vivo
Rattus norvegicus [24] = experiment: Antiosteoporotic activity in glucocorticoid-induced Wistar rat osteoporosis model assessed as increase in trabecula area at 30 mg/kg/day, po administered six times a week for 3 months by toluidine blue staining-based light microscopic analysis relative to dexamethasone; assay type: functional, organism-based
Rattus norvegicus [25] = experiment: Toxicity in glucocorticoid-induced Wistar rat osteoporosis model assessed as white blood cells at 30 mg/kg/day, po administered six times a week for 3 months (reference value: 6.28 +/- 2.78 x 10^9/L); assay type: organism-based; set-up: route oral; conditions: in vivo
Rattus norvegicus [26] = experiment: Toxicity in glucocorticoid-induced Wistar rat osteoporosis model assessed as triglycerides level at 30 mg/kg/day, po administered six times a week for 3 months (reference value: 1.13 +/- 0.69 mmol/L); assay type: organism-based; set-up: route oral; conditions: in vivo
Rattus norvegicus [27] = experiment: Toxicity in glucocorticoid-induced Wistar rat osteoporosis model assessed as neutrophilic granulocytes level at 30 mg/kg/day, po administered six times a week for 3 months (reference value: 31.95 +/- 8.33%); assay type: organism-based; set-up: route oral; conditions: in vivo
Rattus norvegicus [28] = experiment: Antiosteoporotic activity in glucocorticoid-induced Wistar rat osteoporosis model assessed as mineral apposition rate at 30 mg/kg/day, po administered six times a week for 3 months by fluorescence assay (reference value: 1.06 +/- 0.27 micrometer/day); assay type: functional
Rattus norvegicus [29] = experiment: Antiosteoporotic activity in glucocorticoid-induced Wistar rat osteoporosis model assessed as increase in trabecula thickness at 30 mg/kg/day, po administered six times a week for 3 months by toluidine blue staining-based light microscopic analysis relative to dexamethasone; assay type: functional, organism-based
Rattus norvegicus [30] = experiment: Toxicity in glucocorticoid-induced Wistar rat osteoporosis model assessed as effect on blood urea nitrogen level at 30 mg/kg/day, po administered six times a week for 3 months; assay type: organism-based; set-up: route oral; conditions: in vivo
Rattus norvegicus [31] = experiment: Toxicity in glucocorticoid-induced Wistar rat osteoporosis model assessed as effect on platelets at 30 mg/kg/day, po administered six times a week for 3 months; assay type: organism-based; set-up: route oral; conditions: in vivo
Rattus norvegicus [32] = experiment: Antiosteoporotic activity in glucocorticoid-induced Wistar rat osteoporosis model assessed as densed trabecula at 30 mg/kg/day, po administered six times a week for 3 months by toluidine blue staining-based light microscopic analysis relative to dexamethasone; assay type: functional, organism-based

SMILES	Activity [1]	Activity (Rattus norvegicus [2])	Activity (Rattus norvegicus [3])	Activity (Rattus norvegicus [4])	Activity (Rattus norvegicus [5])	Activity (Rattus norvegicus [6])	Activity (Rattus norvegicus [7])	Activity (Rattus norvegicus [8])	Activity (Rattus norvegicus [10])	Activity (Rattus norvegicus [11])	Activity (Rattus norvegicus [13])	Activity (Rattus norvegicus [14])	Activity (Rattus norvegicus [17])	Activity (Rattus norvegicus [18])	Activity (Rattus norvegicus [20])	Activity (Rattus norvegicus [21])	Activity (Rattus norvegicus [22])	Activity (Rattus norvegicus [23])	Activity (Rattus norvegicus [25])	Activity (Rattus norvegicus [26])	also measured
COc1cccc2oc(C(=O)C[S+](C)[O-])cc12 (stereo not given)	19.6%	–	–	–	–	–	–	–	–	–	–	–	–	–	–	–	–	–	–	–	–
CCOC(=O)c1ccc2cc(C(=O)/C=C/c3ccc(OC)cc3)sc2c1	12.2%	–	–	–	–	–	–	–	–	–	–	–	–	–	–	–	–	–	–	–	–
CCOC(=O)c1cc2ccc(OC)cc2o1	89.4%	Non-toxic	Non-toxic	46.18%	110.08 U/L	Non-toxic	Non-toxic	Non-toxic	Non-toxic	8.23%	30.8%	Non-toxic	7.13%	Non-toxic	27.67 U/L	Non-toxic	Non-toxic	Non-toxic	2.83 ×10⁹ /L	0.38 mmol/L	Activity (Rattus norvegicus [9]): Active; Activity (Mus musculus [12]): Non-toxic; Activity (Rattus norvegicus [15]): Active; Activity (Mus musculus [16]): Non-toxic; LD50 at 336 h [19]: > 500 mg/kg; Activity (Rattus norvegicus [24]): Active; Activity (Rattus norvegicus [27]): 38.96%; Activity (Rattus norvegicus [28]): 1.29 micrometer/day; Activity (Rattus norvegicus [29]): Active; Activity (Rattus norvegicus [30]): Non-toxic; Activity (Rattus norvegicus [31]): Non-toxic
CCOC(=O)c1ccc2cc(C(=O)/C=C/c3ccccc3)sc2c1	85.9%	Non-toxic	Non-toxic	43.43%	103.08 U/L	Non-toxic	Non-toxic	Non-toxic	Non-toxic	8.58%	25.2%	Non-toxic	6.98%	Non-toxic	27 U/L	Non-toxic	Non-toxic	Non-toxic	2.83 ×10⁹ /L	0.29 mmol/L	Activity (Rattus norvegicus [9]): Active; Activity (Mus musculus [12]): Non-toxic; Activity (Rattus norvegicus [15]): Active; Activity (Mus musculus [16]): Non-toxic; LD50 at 336 h [19]: > 500 mg/kg; Activity (Rattus norvegicus [24]): Active; Activity (Rattus norvegicus [27]): 41.98%; Activity (Rattus norvegicus [28]): 1.26 micrometer/day; Activity (Rattus norvegicus [29]): Active; Activity (Rattus norvegicus [30]): Non-toxic; Activity (Rattus norvegicus [31]): Non-toxic
COC(=O)c1ccc2cc(C(C)O)sc2c1 (stereo not given)	81.4%	–	–	–	–	–	–	–	–	–	–	–	–	–	–	–	–	–	–	–	–
CC(=O)c1cc2cc(C(=O)O)ccc2s1	93.2%	Non-toxic	Non-toxic	36.73%	103.17 U/L	Non-toxic	Non-toxic	Non-toxic	Non-toxic	10.3%	23.13%	Non-toxic	5.03%	Non-toxic	26.67 U/L	Non-toxic	Non-toxic	Non-toxic	3.31 ×10⁹ /L	0.62 mmol/L	Activity (Mus musculus [12]): Non-toxic; Activity (Mus musculus [16]): Non-toxic; LD50 at 336 h [19]: > 500 mg/kg; Activity (Rattus norvegicus [27]): 47.71%; Activity (Rattus norvegicus [28]): 1.03 micrometer/day; Activity (Rattus norvegicus [30]): Non-toxic; Activity (Rattus norvegicus [32]): Active; Activity (Rattus norvegicus [31]): Non-toxic
CC(=O)c1cc2ccccc2s1	–	Non-toxic	Non-toxic	39.85%	129.83 U/L	Non-toxic	Non-toxic	Non-toxic	Non-toxic	8.36%	31.57%	Non-toxic	7.36%	Non-toxic	35.25 U/L	Non-toxic	Non-toxic	Non-toxic	3.12 ×10⁹ /L	0.46 mmol/L	Activity (Rattus norvegicus [9]): Active; Activity (Rattus norvegicus [15]): Active; Activity (Rattus norvegicus [24]): Active; Activity (Rattus norvegicus [27]): 43.25%; Activity (Rattus norvegicus [28]): 1.24 micrometer/day; Activity (Rattus norvegicus [29]): Active; Activity (Rattus norvegicus [30]): Non-toxic; Activity (Rattus norvegicus [31]): Non-toxic
CCOC(=O)c1cc2cc3c(cc2s1)OCO3	–	Non-toxic	Non-toxic	46.29%	114.82 U/L	Non-toxic	Non-toxic	Non-toxic	Non-toxic	9.43%	22.07%	Non-toxic	5.72%	Non-toxic	28.27 U/L	Non-toxic	Non-toxic	Non-toxic	3.27 ×10⁹ /L	0.34 mmol/L	Activity (Mus musculus [12]): Non-toxic; Activity (Mus musculus [16]): Non-toxic; LD50 at 336 h [19]: > 500 mg/kg; Activity (Rattus norvegicus [27]): 41.49%; Activity (Rattus norvegicus [28]): 0.95 micrometer/day; Activity (Rattus norvegicus [30]): Non-toxic; Activity (Rattus norvegicus [32]): Active; Activity (Rattus norvegicus [31]): Non-toxic
CCOC(=O)c1cc2c(OC)cccc2o1	60%	–	–	–	–	–	–	–	–	–	–	–	–	–	–	–	–	–	–	–	–
CCOC(=O)c1ccc2cc(C(=O)/C=C/c3ccc(OC)c(OC)c3OC)sc2c1	-13%	–	–	–	–	–	–	–	–	–	–	–	–	–	–	–	–	–	–	–	–
CCOC(=O)c1cc2cc(OC)ccc2o1	64.1%	–	–	–	–	–	–	–	–	–	–	–	–	–	–	–	–	–	–	–	–
